From US12590063B2, “Phenol derivative” (Sumitomo Pharma Co., Ltd., priority 2020, dated 2026) come the findings set out here.

The target of one data set is T1, Human TRPV1 (Homo sapiens, UniProt Q8NER1).
T1 construct: the TRPV1 gene (GenBank NP_542435.2) had been inserted; expressed in transfected cells; host or cells: HEK293 cells (cat #CCL-82.2, ATCC), transient transfection with pcDNA3.1
In words: Evaluation of agonistic properties using human TRPV1 transiently expressing cells. In kind it is cell-based. Conditions: for TRPV-1-agonistic activity (in words): evaluation test for TRPV-1-agonistic properties, summary of Tables 3 and 4. The source says: Test Example 1: Evaluation of Agonistic Properties Using Human TRPV1 Transiently Expressing Cells
(1) Generation of Human TRPV1 Transiently Expressing Cells
Human TRPV1 transiently expressing cells were generated and subjected to culture. Specifically, HEK293 cells (cat #CCL-82.2, ATCC) were used as host cells. Human TRPV1 and apoaequorin were transiently expressed by introducing the mammalian cell expression pcDNA3.1 vector (cat #v790-20, Invitrogen) into which the TRPV1 gene (GenBank NP_542435.2) had been inserted.
The Dulbecco's Modified Eagle's Medium (DMEM) medium (cat #11550-043, Thermo Fisher Scientific) containing 10% inactivated fetal bovine serum (cat #10270-106, Thermo Fisher Scientific) was used as the medium, and the culture was carried out in tissue culture dishes (cat #3020-100, Iwaki). During the culture, cells were collected every 2 to 3 days by treating with PBS containing 10% 2.5 g/1-trypsin/[…] solution, phenol red (cat #32777-44, Nacalai Tesque), and passage culture was carried out.
Three days after the passage, cells were collected with 10% trypsin-PBS treatment at a state of about 80% confluency, suspended in a DMEM medium containing 10% fetal bovine serum to 4000 cells/35 μl/well, and seeded into 384-well plates (cat #353962, FALCON).
The day after seeding, Viviren (cat #E6492, Promega) was added (15 μl/well) to a final concentration of 4.5 μM/HBSS (cat #14065-056, Thermo Fisher Scientific)/90 mM HEPES (cat #17514-15, Nacalai Tesque)/0.1% BSA (cat #01281-84, Nacalai Tesque), and after centrifugation, the samples were allowed to stand at room temperature for 2 hours under light-shielded conditions.
(2) Preparation of Test Compounds
For the test compounds, dimethyl sulfoxide solutions were produced at a concentration 1000 times the final concentration, and from these solutions, solutions at concentration 10 times the final concentration were prepared with Hanks/20 mmol/L HEPES/0.10% BSA (cat #01281-84, Nacalai Tesque).
(3) Evaluation of TRPV1-Agonistic Properties
FDSS7000 (Hamamatsu Photonics K.K.) was used for detection of TRPV1 agonist-stimulated luminescence signals. The test compounds were added to plates to which the cells and luminescent substrates had been added. The luminescence signals (center wavelength: 465 nm) after addition of the test compounds were measured, and the Rlu (Max−Min) was calculated.

Data set [1] is described as follows: Evaluation test for metabolic stability to S9. The note with it: liver S9 fraction, 37° C., 15 minutes, final compound concentration 10 nM. Type of data set: in vitro ADME. The protocol: Test Example 4: Evaluation Test for Metabolic Stability to S9
The compounds were added to a reaction solution in which the liver S9 fraction was diluted with phosphate buffer, and incubation was initiated at 37° C. (final compound concentration 10 nM, final volume 300 μL). After incubation for 15 minutes, the reaction was stopped by adding the reaction solution to acetonitrile, and centrifugation was carried out. After filtering the supernatant through a filter, the amount of compounds was determined using LC/MS/MS. From the amount of compounds obtained, the residual rate 15 minutes after the initiation of the reaction was calculated relative to the amount of compounds before the initiation of the reaction (0 minutes).

Where [2] appears, read: HEK293 cells transiently expressing human TRPV1 and apoaequorin, luminescence signal Rlu (Max-Min), read-out: TRPV1 EC50.

Read-outs that look alike come from different tables or passages of the source.

T1 sequence (Q8NER1 whole entry): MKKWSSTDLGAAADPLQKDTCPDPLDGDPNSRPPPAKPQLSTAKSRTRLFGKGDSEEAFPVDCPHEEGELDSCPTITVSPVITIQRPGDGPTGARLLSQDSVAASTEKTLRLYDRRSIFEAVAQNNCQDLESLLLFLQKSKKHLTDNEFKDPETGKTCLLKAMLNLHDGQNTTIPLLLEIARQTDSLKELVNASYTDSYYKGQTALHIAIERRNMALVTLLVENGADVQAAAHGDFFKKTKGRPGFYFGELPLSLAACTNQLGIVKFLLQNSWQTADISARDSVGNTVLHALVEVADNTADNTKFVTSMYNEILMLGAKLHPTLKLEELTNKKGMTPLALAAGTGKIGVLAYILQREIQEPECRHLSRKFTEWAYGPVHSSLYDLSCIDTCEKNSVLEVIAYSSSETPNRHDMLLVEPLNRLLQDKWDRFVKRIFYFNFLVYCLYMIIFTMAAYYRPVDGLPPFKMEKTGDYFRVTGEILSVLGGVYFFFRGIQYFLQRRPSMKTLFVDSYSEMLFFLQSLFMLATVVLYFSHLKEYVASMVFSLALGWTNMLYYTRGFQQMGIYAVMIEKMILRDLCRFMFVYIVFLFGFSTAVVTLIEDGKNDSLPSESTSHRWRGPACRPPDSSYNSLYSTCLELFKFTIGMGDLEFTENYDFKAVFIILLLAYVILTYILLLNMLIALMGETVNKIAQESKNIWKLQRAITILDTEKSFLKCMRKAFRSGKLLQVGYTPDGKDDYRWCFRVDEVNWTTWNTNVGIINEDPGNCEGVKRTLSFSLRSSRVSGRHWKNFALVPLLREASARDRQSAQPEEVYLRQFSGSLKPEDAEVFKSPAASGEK

With `COc1cc(CC(=O)Nc2ccnc([C@H]3CC[C@@H](OC(C)=O)CC3)c2)ccc1O` [Example 41, cis-4-{4-[2-(4-hydroxy-3-methoxyphenyl)acetamido]pyridin-2-yl}cyclohexyl acetate], the EC50 on Human TRPV1 (setting [2]) stood at 95.1 nM. In the case of `COc1cc(CNC(=O)c2cccc(-c3cccc(OC(=O)C(C)C)c3)n2)ccc1O` [Example 47, 3-(6-{[(4-hydroxy-3-methoxyphenyl)methyl]carbamoyl}pyridin-2-yl)phenyl 2-methylpropanoate], the EC50 at Human TRPV1 (setting [2]) is 148 nM. In addition, the “Residual rate (%)” value in data set [1] is on record as less than 1%.

`COc1cc(CC(=O)Nc2cccc([C@H]3CC[C@@H](OC(=O)Cc4cccs4)CC3)c2)ccc1O` [Example 13, cis-4-{3-[2-(4-hydroxy-3-methoxyphenyl)acetamido]phenyl}cyclohexyl (thiophen-2-yl)acetate]: the EC50 on Human TRPV1 (setting [2]) is 9 nM. For the same molecule, in data set [1], the “Residual rate (%)” value is listed as 89%. In the case of `COc1cc(CC(=O)Nc2cccc([C@H]3CC[C@@H](OC(=O)Cc4cccc(C)c4)CC3)c2)ccc1O` [Example 9, cis-4-{3-[2-(4-hydroxy-3-methoxyphenyl)acetamido]phenyl}cyclohexyl (3-methylphenyl)acetate], the EC50 on Human TRPV1 (setting [2]) was 2 nM. Also, the “Residual rate (%)” value in data set [1] turned out to be 88%. As for `COc1cc(CNC(=O)c2cccc(-c3cccc(O)c3)c2)ccc1O` [Reference Example 12, 3′-Hydroxy-N-[(4-hydroxy-3-methoxyphenyl)methyl][1,1′-biphenyl]-3-carboxamide], the EC50 at Human TRPV1 (setting [2]) was determined as 3290 nM. With `COc1cc(CC(=O)Nc2cccc([C@H]3CC[C@@H](OC(=O)C(C)C)CC3)c2)ccc1O` [Example 17, cis-4-{3-[2-(4-hydroxy-3-methoxyphenyl)acetamido]phenyl}cyclohexyl 2-methylpropanoate], the EC50 on Human TRPV1 (setting [2]) came to 2.6 nM. The “TRPV-1-agonistic activity (in words)” value on Human TRPV1 is recorded as “stronger TRPV-1-agonistic activity”. Further, the “Residual rate (%)” value in data set [1] is less than 1%. In the case of `COc1cc(CC(=O)Nc2cccc([C@H]3CC[C@@H](O)CC3)c2)ccc1O` [Reference Example 9, N-{3-[(cis)-4-Hydroxycyclohexyl]phenyl}-2-(4-hydroxy-3-methoxyphenyl)acetamide], the EC50 at Human TRPV1 (setting [2]) amounted to 2690 nM. With `COc1cc(CC(=O)Nc2cccc([C@H]3CC[C@@H](OC(=O)CC4CCCCC4)CC3)c2)ccc1O` [Example 5, cis-4-{3-[2-(4-hydroxy-3-methoxyphenyl)acetamido]phenyl}cyclohexyl cyclohexylacetate], the EC50 on Human TRPV1 (setting [2]) stood at 61.2 nM. For the same molecule, in data set [1], the “Residual rate (%)” value turned out to be 90%.

As to `COc1cc(CC(=O)Nc2cccc(-c3cccc(OC(=O)C4CCCCC4)c3)n2)ccc1O` [Example 34, 3-{6-[2-(4-hydroxy-3-methoxyphenyl)acetamido]pyridin-2-yl}phenyl cyclohexanecarboxylate], the EC50 at Human TRPV1 (setting [2]) was determined as 12.8 nM. Also, in data set [1], the “Residual rate (%)” value is recorded as less than 1%. With `COc1cc(CC(=O)Nc2cccc(-c3cccc(OC(=O)CC4CCOCC4)c3)c2)ccc1O` [Example 29, 3′-[2-(4-hydroxy-3-methoxyphenyl)acetamido][1,1′-biphenyl]-3-yl (oxa-4-yl)acetate], on Human TRPV1 (setting [2]), the EC50 was 13.2 nM. Also, the “Residual rate (%)” value in data set [1] is on record as less than 1%. Consider `COc1cc(CC(=O)Nc2cccc([C@H]3CC[C@H](O)CC3)c2)ccc1O` [Reference Example 10, N-{3-[(trans)-4-Hydroxycyclohexyl]phenyl}-2-(4-hydroxy-3-methoxyphenyl)acetamide], for which, on Human TRPV1 (setting [2]), the EC50 came out at 8060 nM.

Take `COc1cc(CNC(=O)c2cccc(-c3cccc(O)c3)n2)ccc1O` [compound 19]: the EC50 at Human TRPV1 (setting [2]) was 2720 nM.

With `CCC(=O)Oc1cccc(-c2cccc(NC(=O)Cc3ccc(O)c(OC)c3)c2)c1` [Example 16, 3′-[2-(4-hydroxy-3-methoxyphenyl)acetamido][1,1′-biphenyl]-3-yl propanoate], the EC50 at Human TRPV1 (setting [2]) is 6.3 nM. Also, the “Residual rate (%)” value in data set [1] is less than 1%.

Turning to `COc1cc(CC(=O)Nc2cccc([C@H]3CC[C@H](OC(=O)Cc4ccccc4)CC3)c2)ccc1O` [Example 36, trans-4-{3-[2-(4-hydroxy-3-methoxyphenyl)acetamido]phenyl}cyclohexyl phenylacetate], the EC50 at Human TRPV1 stood at 57.5 nM. With `COc1cc(CC(=O)Nc2cccc([C@H]3CC[C@@H](OC(=O)Cc4ccccc4F)CC3)c2)ccc1O` [Example 15, cis-4-{3-[2-(4-hydroxy-3-methoxyphenyl)acetamido]phenyl}cyclohexyl (2-fluorophenyl)acetate], the EC50 at Human TRPV1 (setting [2]) was found to be 4.6 nM. Also, the “TRPV-1-agonistic activity (in words)” value at Human TRPV1 was “stronger TRPV-1-agonistic activity”. Moreover, the “Residual rate (%)” value in data set [1] was found to be 69%. In the case of `COc1cc(CNC(=O)c2cccc([C@H]3CC[C@@H](OC(C)=O)CC3)c2)ccc1O` [Example 42, cis-4-(3-{[(4-hydroxy-3-methoxyphenyl)methyl]carbamoyl}phenyl)cyclohexyl acetate], at Human TRPV1 (setting [2]), the EC50 is 83.1 nM. For the molecule `COc1cc(CC(=O)Nc2cccc(-c3cccc(OC(=O)Cc4ccc(C)cc4)c3)c2)ccc1O` [Example 27, 3′-[2-(4-hydroxy-3-methoxyphenyl)acetamido][1,1′-biphenyl]-3-yl (4-methylphenyl)acetate], on Human TRPV1 (setting [2]), the EC50 came to 11.1 nM. The “Residual rate (%)” value in data set [1] is less than 1%. In the case of `COc1cc(CC(=O)Nc2cccc([C@H]3CC[C@H](OC(C)=O)CC3)c2)ccc1OC(C)=O` [Example 40, 4-(2-{3-[(trans)-4-(acetyloxy)cyclohexyl]anilino}-2-oxoethyl)-2-methoxyphenyl acetate], on Human TRPV1 (setting [2]), the EC50 was determined as 480 nM. In the case of `COc1cc(CC(=O)Nc2cccc([C@H]3CC[C@H](OC(=O)C(C)C)CC3)c2)ccc1O` [Example 48, trans-4-{3-[2-(4-hydroxy-3-methoxyphenyl)acetamido]phenyl}cyclohexyl 2-methylpropanoate], at Human TRPV1 (setting [2]), the EC50 stood at 32.1 nM. Consider `COc1cc(CC(=O)Nc2ccnc([C@H]3CC[C@@H](OC(C)=O)CC3)c2)ccc1OC(C)=O` [Example 43, 4-[2-({2-[(cis)-4-(acetyloxy)cyclohexyl]pyridin-4-yl}amino)-2-oxoethyl]-2-methoxyphenyl acetate], for which, at Human TRPV1 (setting [2]), the EC50 stood at 3080 nM. Take `COc1cc(CNC(=O)c2ccnc(-c3cccc(O)c3)c2)ccc1O` [Reference Example 18]: the EC50 on Human TRPV1 (setting [2]) was 6110 nM. `COc1cc(CC(=O)Nc2cccc([C@H]3CC[C@H](OC(=O)C4CCCCC4)CC3)c2)ccc1O` [Example 37, trans-4-{3-[2-(4-hydroxy-3-methoxyphenyl)acetamido]phenyl}cyclohexyl cyclohexanecarboxylate]: at Human TRPV1 (setting [2]), the EC50 is 73.1 nM. As for `COc1cc(CC(=O)Nc2cccc([C@H]3CC[C@H](OC(C)=O)CC3)c2)ccc1O` [Example 38, trans-4-{3-[2-(4-hydroxy-3-methoxyphenyl)acetamido]phenyl}cyclohexyl acetate], the concentration for a half-maximal effect (EC50) on Human TRPV1 (setting [2]) is 18.9 nM.

Turning to `COc1cc(CC(=O)Nc2cccc([C@H]3CC[C@@H](OC(C)=O)CC3)c2)ccc1OC(C)=O` [Example 39, 4-(2-{3-[(cis)-4-(acetyloxy)cyclohexyl]anilino}-2-oxoethyl)-2-methoxyphenyl acetate], on Human TRPV1 (setting [2]), the EC50 turned out to be 282 nM. `COc1cc(CC(=O)Nc2cccc(-c3cccc(O)c3)c2)ccc1O` [compound 14]: the EC50 on Human TRPV1 (setting [2]) stood at 1650 nM. Take `COc1cc(CC(=O)Nc2ccnc(-c3cccc(O)c3)c2)ccc1O` [compound 15]: the EC50 at Human TRPV1 (setting [2]) amounted to 4560 nM.

`COc1cc(CC(=O)Nc2ccc(F)c(-c3cccc(O)c3)c2)ccc1O` [compound 17]: on Human TRPV1 (setting [2]), the EC50 worked out at 7020 nM. Take `COc1cc(CC(=O)Nc2cccc(-c3ccc(O)cc3)c2)ccc1O` [compound 13]: on Human TRPV1 (setting [2]), the EC50 stood at 606 nM. For the molecule `COc1cc(CC(=O)Nc2cccc([C@H]3CC[C@@H](OC(=O)Cc4ccccc4)CC3)c2)ccc1O` [Example 35, cis-4-{3-[2-(4-hydroxy-3-methoxyphenyl)acetamido]phenyl}cyclohexyl phenylacetate], at Human TRPV1, the EC50 was 8.2 nM. `COc1cc(CC(=O)Nc2cccc(-c3cccc(O)c3)n2)ccc1O` [compound 16]: the EC50 at Human TRPV1 (setting [2]) came out at 1010 nM.
